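Assay format: 96-well plates, 48-hour exposure. The concentration for 50% growth inhibition is given as GI50.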 Activity calls are given as the source filed them. Cut-off read from the data, not from the text of the source: active = GI50 up to about 1.1 µM and inactive = higher.
Assays:
Assay in all cases: growth of human tumour cells (NCI), 48 h
DMS-114 = tested on: DMS-114
HCT-116 = tested on: HCT-116
HCT-15 = tested on: HCT-15
HL-60 = tested on: HL-60
IGROV-1 = tested on: IGROV-1
K562 = tested on: K562
M14 = tested on: M14
NCI-H23 = tested on: NCI-H23
RPMI-8226 = tested on: RPMI-8226
SF-268 = tested on: SF-268
SK-MEL-28 = tested on: SK-MEL-28
SN12C = tested on: SN12C
SNB-75 = tested on: SNB-75
SW-620 = tested on: SW-620
TK-10 = tested on: TK-10
UACC-257 = tested on: UACC-257
XF498 = tested on: XF498

SMILES	GI50 (DMS-114)	GI50 (HCT-116)	GI50 (HCT-15)	GI50 (HL-60)	GI50 (IGROV-1)	GI50 (K562)	GI50 (M14)	GI50 (NCI-H23)	GI50 (RPMI-8226)	GI50 (SF-268)	GI50 (SK-MEL-28)	GI50 (SN12C)	GI50 (SNB-75)	GI50 (SW-620)	GI50 (TK-10)	GI50 (UACC-257)	GI50 (XF498)
CC1=C/C(=C2/N=C(N(C)C)SS2)C(C)=N1.[O-][Cl+3]([O-])([O-])O	> 100 µM (inactive)	> 100 µM (inactive)	> 100 µM	> 100 µM (inactive)	> 100 µM (inactive)	42.1 µM (inactive)	> 100 µM (inactive)	6.47 µM (inactive)	> 100 µM (inactive)	> 100 µM (inactive)	> 100 µM (inactive)	> 100 µM (inactive)	> 100 µM (inactive)	> 100 µM (inactive)	> 100 µM (inactive)	> 100 µM (inactive)	> 100 µM (inactive)
N=C(N)NS(=O)(=O)c1ccc(NC(=O)c2cccn3c(=O)c4ccccc4nc23)cc1	40.6 µM (inactive)	40.8 µM (inactive)	–	24.5 µM (inactive)	56 µM (inactive)	32.3 µM (inactive)	60.8 µM (inactive)	38 µM (inactive)	24.9 µM (inactive)	> 100 µM (inactive)	91 µM (inactive)	70.8 µM (inactive)	> 100 µM (inactive)	51.5 µM (inactive)	61 µM (inactive)	19.7 µM (inactive)	22.5 µM (inactive)
COc1ccc(OC)c2c(C(=O)O)c(Cc3ccccc3)ccc12	> 100 µM (inactive)	> 100 µM (inactive)	> 100 µM	> 100 µM (inactive)	> 100 µM (inactive)	> 100 µM (inactive)	> 100 µM (inactive)	> 100 µM (inactive)	–	> 100 µM (inactive)	> 100 µM (inactive)	> 100 µM (inactive)	> 100 µM (inactive)	> 100 µM (inactive)	> 100 µM (inactive)	> 100 µM (inactive)	> 100 µM (inactive)
O=S(=O)(SCc1ccccc1)C(c1ccccc1)c1ccccc1	19.3 µM (inactive)	33.4 µM (inactive)	30.5 µM	5.52 µM (inactive)	32.7 µM (inactive)	6.67 µM (inactive)	24 µM (inactive)	26.5 µM (inactive)	25 µM (inactive)	57.1 µM (inactive)	48.3 µM (inactive)	24.1 µM (inactive)	30.3 µM (inactive)	7.4 µM (inactive)	> 100 µM (inactive)	32.9 µM (inactive)	58.1 µM (inactive)
CCN(CC)CCC(=O)/C=C/c1ccc(C)cc1	11.3 µM (inactive)	13.4 µM (inactive)	12.5 µM	10.8 µM (inactive)	15.3 µM (inactive)	19.5 µM (inactive)	13.7 µM (inactive)	17.1 µM (inactive)	3.99 µM (inactive)	15.8 µM (inactive)	14.8 µM (inactive)	12 µM (inactive)	15.6 µM (inactive)	4.69 µM (inactive)	6.85 µM (inactive)	13.9 µM (inactive)	12.4 µM (inactive)
COC(=O)C(CC(=O)c1ccccc1)c1ccccc1NC(C)=O (stereo not drawn)	> 100 µM (inactive)	> 100 µM (inactive)	> 100 µM	> 100 µM (inactive)	> 100 µM (inactive)	> 100 µM (inactive)	> 100 µM (inactive)	> 100 µM (inactive)	> 100 µM (inactive)	> 100 µM (inactive)	> 100 µM (inactive)	> 100 µM (inactive)	87.1 µM (inactive)	> 100 µM (inactive)	> 100 µM (inactive)	> 100 µM (inactive)	> 100 µM (inactive)
CC(=O)Nc1ccc(/C=c2\sc3nnc(CCC(=O)Nc4ccccc4Cl)n3c2=O)cc1	55.5 µM (inactive)	37.7 µM (inactive)	44.6 µM	19.8 µM (inactive)	> 100 µM (inactive)	24.2 µM (inactive)	16.7 µM (inactive)	46.3 µM (inactive)	20.8 µM (inactive)	26.4 µM (inactive)	23 µM (inactive)	39.6 µM (inactive)	–	27 µM (inactive)	37.8 µM (inactive)	> 10 µM (inactive)	25.1 µM (inactive)
C[Si](C)(C)CC(N)=O	> 100 µM (inactive)	> 100 µM (inactive)	> 100 µM	> 100 µM (inactive)	> 100 µM (inactive)	> 100 µM (inactive)	> 100 µM (inactive)	–	> 100 µM (inactive)	–	> 100 µM (inactive)	> 100 µM (inactive)	> 100 µM (inactive)	> 100 µM (inactive)	> 100 µM (inactive)	> 100 µM (inactive)	> 100 µM (inactive)
O=c1cc(-c2ccccc2)[nH]c2c(Cl)cccc12	7.66 µM (inactive)	7.24 µM (inactive)	5.09 µM	9.12 µM (inactive)	4.86 µM (inactive)	2.77 µM (inactive)	9.31 µM (inactive)	63.2 µM (inactive)	17 µM (inactive)	38.4 µM (inactive)	> 100 µM (inactive)	46.2 µM (inactive)	13.8 µM (inactive)	3.86 µM (inactive)	> 100 µM (inactive)	78.3 µM (inactive)	26.8 µM (inactive)
COc1cc2c(cc1OC)C1[C@@H](c3ccccc3)OCN1CC2 (stereo partly drawn)	88.1 µM (inactive)	> 82.2 µM (inactive)	> 90.6 µM	54.5 µM (inactive)	> 100 µM (inactive)	> 63.1 µM (inactive)	> 100 µM (inactive)	> 100 µM (inactive)	44.4 µM (inactive)	> 100 µM (inactive)	> 100 µM (inactive)	> 100 µM (inactive)	60.8 µM (inactive)	56.8 µM (inactive)	> 100 µM (inactive)	> 100 µM (inactive)	> 100 µM (inactive)
COc1ccc2nc(C(=O)c3ccccc3)c(C)cc2c1	3.22 µM (inactive)	4.63 µM (inactive)	3.3 µM	3.38 µM (inactive)	> 29.2 µM (inactive)	0.859 µM (active)	3.74 µM (inactive)	3.71 µM (inactive)	6.61 µM (inactive)	6.76 µM (inactive)	3.91 µM (inactive)	6.84 µM (inactive)	2.96 µM (inactive)	2.81 µM (inactive)	11.1 µM (inactive)	4.14 µM (inactive)	3.68 µM (inactive)
CN(C)c1ccc(/C=C2\N=C(c3ccc(N)cc3)OC2=O)cc1	> 100 µM (inactive)	–	> 100 µM	> 100 µM (inactive)	> 100 µM (inactive)	38.8 µM (inactive)	> 100 µM (inactive)	> 100 µM (inactive)	> 100 µM (inactive)	> 100 µM (inactive)	> 100 µM (inactive)	> 100 µM (inactive)	> 100 µM (inactive)	> 100 µM (inactive)	> 100 µM (inactive)	> 100 µM (inactive)	> 100 µM (inactive)
N#CC(C(=O)CCC(=O)Nc1ccc(Cl)cc1)c1ccccc1Cl (stereo not drawn)	> 100 µM (inactive)	61.1 µM (inactive)	21 µM	> 100 µM (inactive)	> 100 µM (inactive)	18.4 µM (inactive)	47.8 µM (inactive)	93.1 µM (inactive)	> 100 µM (inactive)	32.1 µM (inactive)	> 100 µM (inactive)	> 100 µM (inactive)	45.9 µM (inactive)	> 100 µM (inactive)	> 100 µM (inactive)	> 100 µM (inactive)	> 100 µM (inactive)
COc1ccc(/C(Cl)=C(/c2ccc(O)cc2)c2ccc(OCCN(C)C)cc2)cc1	7.18 µM (inactive)	–	11.3 µM	10.2 µM (inactive)	16.4 µM (inactive)	–	2.1 µM (inactive)	15.6 µM (inactive)	5.96 µM (inactive)	11.8 µM (inactive)	4.38 µM (inactive)	12.9 µM (inactive)	11 µM (inactive)	11.9 µM (inactive)	19.7 µM (inactive)	2.9 µM (inactive)	3.65 µM (inactive)
O=C(O)CC(O)(c1ccccc1C(=O)O)c1cccc2ccccc12 (stereo not drawn)	> 100 µM (inactive)	> 100 µM (inactive)	> 100 µM	> 100 µM (inactive)	> 100 µM (inactive)	> 100 µM (inactive)	> 100 µM (inactive)	> 100 µM (inactive)	> 100 µM (inactive)	> 100 µM (inactive)	> 100 µM (inactive)	> 100 µM (inactive)	> 100 µM (inactive)	> 100 µM (inactive)	> 100 µM (inactive)	> 100 µM (inactive)	> 100 µM (inactive)
N#CC(C(=O)CCC(=O)Nc1ccc(Cl)c(Cl)c1)c1ccccc1 (stereo not drawn)	> 100 µM (inactive)	> 100 µM (inactive)	> 100 µM	> 100 µM (inactive)	> 100 µM (inactive)	> 100 µM (inactive)	> 100 µM (inactive)	> 100 µM (inactive)	> 100 µM (inactive)	> 100 µM (inactive)	> 100 µM (inactive)	> 100 µM (inactive)	> 100 µM (inactive)	> 100 µM (inactive)	–	> 100 µM (inactive)	> 100 µM (inactive)
O=C1CC23CCCCCCCCCCC2(C1)CC(=O)C3 (stereo not drawn)	26.7 µM (inactive)	–	27.3 µM	17.4 µM (inactive)	25.7 µM (inactive)	27.5 µM (inactive)	16.6 µM (inactive)	32.1 µM (inactive)	19.4 µM (inactive)	51.9 µM (inactive)	38.7 µM (inactive)	17.6 µM (inactive)	–	40.6 µM (inactive)	38.5 µM (inactive)	34.8 µM (inactive)	21.5 µM (inactive)

— ChEMBL document CHEMBL1201862, “PubChem BioAssay data set” (2004)
